Test results as given in patent publication US20120208182A1, “GENETIC TEST FOR LIVER COPPER ACCUMULATION IN DOGS AND LOW COPPER PET DIET” (priority 2009, published 2012).

Tests used:
[1] = Diet trial: blood examinations (bile acids, ALP, ALT, plasma zinc); format: in vivo, dog
Description: (§1) All dogs were fed the same diet. […] The pharmacist was the only person aware of group allocations until completion of the study. Hepatic copper concentrations and histopathology were assessed along with clinical examinations and blood-work before and after treatment for a mean of 8 months (range 5-13), and 16 months (range 12-25). Plasma zinc concentrations were measured at additional time points during treatment.
All dogs had completed their treatment with penicillamine prior to the start of this study. A medical history was obtained from all dogs and a physical examination was performed. Na-citrated blood samples were taken for analysis of a coagulation profile, including prothrombin time (PT), activated partial thromboplastin time (aPTT) and fibrinogen. Heparin- and EDTA-blood was sampled for analysis of the hepatobiliary enzymes alkaline phosphatase (ALP), alanine aminotransferase (ALT), of bile acids (BA), and for measurement of the platelet count, and plasma zinc concentrations. Liver biopsies were taken according to the Menghini technique given by Rothuizen (Rothuizen J, I. T. (1998) Tijdschr Diergeneeskd 123: 246-252). At least three liver biopsies were taken from each dog. Two biopsies were fixed in 10 percent neutral buffered formalin, and one biopsy was stored in a copper-free container for quantitative copper determination.

[2] = system: Labrador Retrievers; assay: Diet trial with randomized, placebo-controlled zinc application: quantitative hepatic copper by neutron activation analysis; format: in vivo, dog; details: 7.5 mg/kg PO BID versus placebo, all dogs on diet
Description: as §1
All dogs had completed their treatment with penicillamine prior to the start of this study. A medical history was obtained from all dogs and a physical examination was performed. […] Two biopsies were fixed in 10 percent neutral buffered formalin, and one biopsy was stored in a copper-free container for quantitative copper determination.
A quantitative assay for copper in liver tissue was performed by neutron activation analysis, according to a protocol described by Teske et al, using the facilities described by Bode (Bode, P. (1990) Journal of Trace and Microprobe Techniques 8: 139; Teske et al. (1992) Vet Rec 131: 30-32). Quantitative copper concentrations were measured in lyophilised liver biopsies and reported in mg/kg dry weight liver.
All dog owners were provided with the same specially manufactured diet. […] Metabolizable energy (measured according to Association of American Feed Control Officials protocol): 1650 kcal/kg as fed). […]

[3] = system: Labrador Retrievers; assay: Diet trial: observed adverse effects; format: in vivo, dog; details: in 3 dogs of group 1; immediately after the tablets, resolved when tablets were mixed with the diet
Description: as §1
Owners were instructed to give the tablets mixed with small amounts of their diet 30 minutes before feeding. Neither the owner nor the clinician was informed about which treatment each dog received.

[4] = system: Labrador Retrievers; assay: Hepatic copper before penicillamine, after penicillamine and after diet (Example 5, FIG. 3); format: in vivo, dog; details: all dogs on diet, data not shown
Description: FIG. 3 illustrates the effectiveness of the diet of the invention on hepatic copper concentrations (mg/kg dry weight) in 18 Labrador Retrievers compared with the effect of penicillamine alone. The key to the x-axis is as follows: 1=pre-penicillamine, 2=post-penicillamine/pre-food, 3=post-food. […] The dotted line represents the normal level of hepatic copper for adult dogs.
During an investigation of the effect of zinc on hepatic copper concentration, hepatic copper concentration was measured in 18 pure-bred Labrador Retrievers. Half of the dogs were provided with a supplement of zinc and the other half were provided with a placebo. All of the dogs were fed the diet of Example 2. Hepatic copper concentration was measured using the method of Example 2 at 3 time points: (1) before treatment with penicillamine; (2) after treatment with penicillamine but before treatment with the diet of Example 2; and (3) after the diet treatment.

[5] = Pharmacokinetic study of oral zinc gluconate, plasma zinc by atomic absorption spectrometry; format: in vivo, Labrador Retrievers; details: for V_F: volume of distribution: food withheld 12 h before dosing
Description: Two unrelated nine-year old, healthy Labrador Retrievers (1 female and 1 male) were used in a pharmacokinetic study. Food was withheld for a 12-hour period prior to oral administration of zinc, and during the initial 6-hour testing period. Water was freely available. […] Heparinized blood samples (4 ml) were collected from the jugular vein before dosing (time 0) and 15, 30, 45, 60, 90, 120 minutes, and 4, 8, 12 and 24 hours after application of the drug. Plasma was stored at
−20° C. until analysis for zinc using atomic absorption spectrometry. […]

For zinc gluconate, the “plasma zinc concentration, group 1 versus group 2” value ([1]; at any of the three examinations (start, recheck-1, recheck-2)) was “No difference”, the “mean plasma zinc concentration” value ([1]; group 1, after the initial month of treatment, sampled 2-6 hours after zinc application, start 95) was 165 µg/dL and the “effect of adjunctive zinc on hepatic copper decrease by diet” value [2] was “did not amplify the de-coppering effect”. The adverse effects [3] was “Vomiting, anorexia, and diarrhea”, the “copper levels in dogs treated with zinc versus placebo” value [4] was “no significant difference” and the “AUC: area under the curve” value ([5]; Dog 1, 10 mg/kg oral) was 63350 ng·h/mL. For the same substance, the “K01: absorption rate constant” value ([5]; Dog 1, 10 mg/kg oral) was 0.5672 h⁻¹, the “K10: elimination rate constant” value ([5]; Dog 1, 10 mg/kg oral) was 0.05373 h⁻¹ and the “Tmax: time of maximum concentration” value ([5]; Dog 1, 10 mg/kg oral) was 4.59 h. For the same substance, the “V_F: volume of distribution” value ([5]; Dog 1, 10 mg/kg oral) was 2937.872 ml/kg bodyweight, the “AUC: area under the curve” value ([5]; Dog 2, 5 mg/kg oral) was 51990 ng·h/mL and the “K01: absorption rate constant” value ([5]; Dog 2, 5 mg/kg oral) was 1.161 h⁻¹. For the same substance, the “K10: elimination rate constant” value ([5]; Dog 2, 5 mg/kg oral) was 0.03789 h⁻¹, the “Tmax: time of maximum concentration” value ([5]; Dog 2, 5 mg/kg oral) was 3.048 h and the “V_F: volume of distribution” value ([5]; Dog 2, 5 mg/kg oral) was 2538.689 ml/kg bodyweight. The “calculated accumulation rate R” value ([5]; R=1/(1−exp(−k10*24))) was 1.52 and the “apparent oral clearance (CL/F), mean of both dogs” value ([5]; mean of dog 1 and dog 2) was 2.116898 mL/min/kg.
